Values quoted from earlier work in patent publication US20150320677A1, “EFFERVESCENT TABLET FORMULATIONS OF DAPOXETINE AND A PDE5 INHIBITOR” (Sanovel Ilac Sanayi Ve Ticaret Anonim Sirketi, priority 2012, published 2015).

Experiments:
[1] = following oral administration
[2] = in vivo, po

Compound	onset of action takes (second sentence of b41) [1]	binding to plasma proteins [2]
CN1CC(=O)N2[C@H](c3ccc4c(c3)OCO4)c3[nH]c4ccccc4c3C[C@@H]2C1=O [tadalafil, (6R-trans)-6-(1,3-benzodioxol-5-yl)-2,3,6,7,12,12a-hexahydro-2-methyl-pyrazino[1′,2′:1,6]pyrido[3,4-b]indole-1,4-dione]	up to 36 hours	–
Dapoxetine	–	almost completely binding to plasma proteins
